Test results: patent US20210340526A1, “NOVEL METHOD FOR TRANSDUCING PROTEIN-PROTEIN INTERACTIONS” (ETH ZÜRICH, priority 2018, published 2021)

How the values were obtained:
[1] = target: ADRB2^1to341::AVPR2^343to371::NarX^379to598 H399Q (UniProt P07550); assay: cell-based or functional assay
GPCR ADRB2-AVPR2 = target: T1, GPCR ADRB2-AVPR2 (Homo sapiens, UniProt P07550, E27Q/G16R); assay: two-component (NarX/NarL) reporter assay of GPCR/beta-arrestin interaction, pair ADRB2-AVPR2::H^mut and beta-arrestin::N^mut, in HEK293 cells; type: cell-based
T1 construct: expressed in transfected cells; host or cells: HEK293

NarX/NarL system = assay: control: effect of ligand on NarX/NarL signalling in HEK cells; type: cell-based; conditions: 100 nM; HEK cells with NarX or NarX^379to598, NarL and NarL-activated reporter
Protocol: To find out if NarX domains are capable of transducing this interaction (FIG. 3a), the complementing histidine and asparagine NarX mutants described above were fused at their N-terminus to the FKBP (FK) and the FRB^T2098L (FR) proteins, respectively, resulting in the fusions FK::NarX^379to598H399Q (FK::H^mut) and FR::NarX^379to598N509A (FR::N^mut), and the inverse pair FR::H^mut and FK::N^mut. […]
The cells were prepared for FACS analysis 48 h after transfection by removing the medium and incubating the cells with 200 μl StemPro™ Accutase™ Cell Dissociation Reagent (Gibco, cat #A11105-01) at 37° C. for 5 minutes. […] The prepared samples were measured using a BD LSR Fortessa II Cell Analyzer with a combination of excitation and emission that minimizes the crosstalk between different fluorescent reporters. Cerulean was measured with a 445 nm laser and a 473/10 nm emission filter, mCherry with a 561 nm excitation laser coupled to a 600 nm longpass filter and 610/20 emission filter. The Cerulean and the mCherry were measured, respectively, at PMT voltage of 330 and 310 in all the experiments. […]

CMV promoter = assay: iRFP expression from constitutive promoter under stimulation, HEK cells; type: cell-based; conditions: 1 μM of procaterol or 2 μM of epinephrine versus DMEM without ligand
Protocol: (§1) (a) iRFP fluorescence of HEK cells transfected with the plasmid expressing iRFP from the CMV promoter (white bar) or from the EF1α promoter (black bars). The reporter expression in DMEM without any ligand or in the presence of 1 μM of procaterol or 2 μM of epinephrine is shown as indicated. The bar charts display iRFP level normalized to the frequency of the transfection marker Citrine-positive cells (rel. u.) as mean±SD of independent biological triplicates. (b) Activity of the NarX/NarL expressed from CMV or EF1a promoters. Every transfection contains NarL-regulated mCerulean fluorescent protein reporter and plasmids expressing NarL and NarX from CMV, EF1α or EF1α-V1 promoters, as indicated in the chart.
(§2) For any synthetic signalling system, it is important to avoid non-specific changes to the signalling readout. In the system of the invention, the components are expressed from constitutive promoters. However, these promoters are in fact controlled by highly-expressed transcription factors such as Sp1, and there is always a risk that these factors are directly affected by external stimuli via unrelated endogenous pathways. This would result in the change of constitutive expression, and apparent change in the signalling readout that is unrelated to the studied effect and is artefactual. To eliminate these confounding factors, the inventors examined a number of constitutive promoters for their robustness under various stimulation conditions and compared the expression of iRFP from the CMV and EF1α promoters in the presence of different compounds often used to induce cell signalling (Epinephrine and procaterol).

EF1α promoter = assay: as above; type: cell-based; conditions: 1 μM of procaterol or 2 μM of epinephrine versus DMEM without ligand
Protocol: as §1, §2

FKBP and FRB^T2098L = FKBP and FRB^T2098L (Homo sapiens, UniProt P42345+P62942, T2098L); assay: two-component (NarX/NarL) reporter assay of ligand-induced FKBP/FRB heterodimerization in HEK293 cells; type: cell-based; conditions: pair FR::H^mut and FK::N^mut, NarL and NarL-activated mCerulean reporter, HEK293, Hill function fit of dose-response; read-out: EC50 in the context of the assay
From the text: To enable bona fide signalling, the dimerization of the NarX domains should be preferably controlled by an external stimulus. Inducible protein-protein interaction is a common signalling mechanism both in the cytoplasm and across the membrane. A well characterized ligand-induced heterodimerization takes place between the proteins FK506-binding protein 12 (FKBP) and FKBP12-rapamycin binding domain (FRB) mutant FRB^T2098L in the presence of the small molecule A/C heterodimerize (a rapamycin analog Cl 6-(S)-7-methylindolerapamycin, known also as AP21967).
To find out if NarX domains are capable of transducing this interaction (FIG. 3a), the complementing histidine and asparagine NarX mutants described above were fused at their N-terminus to the FKBP (FK) and the FRB^T2098L (FR) proteins, respectively, resulting in the fusions FK::NarX^379to598H399Q (FK::H^mut) and FR::NarX^379to598N509A (FR::N^mut), and the inverse pair FR::H^mut and FK::N^mut. […] Next, the inventors probed the ligand-induced signalling in a fashion similar to the one used for SynZip1-SynZip2 experiments, expressing different fusion variants and control constructs in HEK293 cells, in the presence of the response regulator NarL and NarL-activated reporter construct, this time with and without the ligand (FIG. 3b, FIG. 8). As expected, full length wild type NarX was constitutively active. […]

Chain of FKBP and FRB^T2098L (P62942 whole entry, the tested form may be a part): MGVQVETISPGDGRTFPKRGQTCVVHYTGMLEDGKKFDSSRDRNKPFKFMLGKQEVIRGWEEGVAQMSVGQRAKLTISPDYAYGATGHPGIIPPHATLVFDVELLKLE
Chain of FKBP and FRB^T2098L (P42345 2012-2144 T2098L limits assumed): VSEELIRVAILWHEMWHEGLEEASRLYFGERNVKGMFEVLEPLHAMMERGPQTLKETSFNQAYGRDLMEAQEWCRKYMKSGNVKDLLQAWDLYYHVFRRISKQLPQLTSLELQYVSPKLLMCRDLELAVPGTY

Molecule: ARRB2::NarX^379to598 N509A (from UniProt P32121 1-409)
- EC50 of the small-molecule agonist isoproterenol for reporter induction [1]: 30 nM
- EC50 of the small-molecule agonist procaterol for reporter induction [1]: 5 nM
- EC50 of the small-molecule partial agonist clenbuterol for reporter induction [1]: 14 nM
- IC50 of the small-molecule antagonist propranolol in the presence of procaterol (reporter) [1]: 2 nM
- reporter expression with the partial agonist clenbuterol against the full agonists [1]: 3.5 times lower

Molecule: CCC(NC(C)C)C(O)c1ccc(O)c2[nH]c(=O)ccc12 (stereo not drawn) [procaterol]
- EC50 (GPCR ADRB2-AVPR2; ADRB2-AVPR2::H^mut and beta-arrestin::N^mut, NarL-regulated mCerulean reporter, HEK293, read-out: EC50 from the dose-response curves): 5 nM
- induction dynamic range of procaterol-triggered signalling (GPCR ADRB2-AVPR2; complementary NarX mutants fused to the GPCR receptor and beta-arrestin, with versus without procaterol): above 3 orders of magnitude
- maximum response of downstream gene expression (GPCR ADRB2-AVPR2; saturating doses, full agonists): reach the same maximum response
- effect on signalling via the wild-type NarX/NarL system (NarX/NarL system): did not affect
- activity of the CMV promoter (iRFP expression) (CMV promoter): induced by a factor of two
- activity of the EF1α promoter (iRFP expression) (EF1α promoter): not affected

Molecule: CNC[C@H](O)c1ccc(O)c(O)c1 [epinephrine]
- activity of the CMV promoter (iRFP expression) (CMV promoter): induced by a factor of two
- activity of the EF1α promoter (iRFP expression) (EF1α promoter): not affected

Molecule: Cl 6-(S)-7-methylindolerapamycin [A/C]
- effect on signalling via the wild-type NarX/NarL system (NarX/NarL system): did not affect
- EC50 (FKBP and FRB^T2098L): 1.3 nM
